The test system of the assay is NF-κ B activation. The assay is described as follows: Inhibitory activity of NF-κB activation, luciferase reporter assay under TNF-α stimulation in HepG2. The conditions noted are these: HepG2, TNF-α 40 ng/ml, 4 hours; for inhibition at 1 µg/mL / inhibition at 10 µg/mL: Homo sapiens, read-out: Inhibitory rate against NF-κB activation (%). The class given is cell-based, human. Put shortly: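 HepG2 cells transiently transfected with luciferase reporter carrying five tandem NF-κB binding sites, then stimulated with TNF-α (40 ng/ml) ± compound for 4 hours. Luminescent luciferase activity measured; inhibition expressed relative to activity without compound.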

For the molecule `CCOC(=O)c1sc(NC(=O)c2cc(Br)ccc2O)nc1C(F)(F)F` [compound 224], the “Inhibitory rate against NF-κB activation (%)” value (“Inhibitory rate … (%)” for short) is, setting by setting: (Drug concentration at 1 μg/mL) 87.6%; (Drug concentration at 10 μg/mL) 96.5%.

Consider `CCOC(=O)c1sc(NC(=O)c2cc(-c3ccc(F)cc3)ccc2O)nc1-c1ccccc1` [compound 226], for which the “Inhibitory rate … (%)” value by setting is: (Drug concentration at 1 μg/mL) 45.0%; (Drug concentration at 10 μg/mL) 85.8%.

For the molecule `CCOC(=O)c1sc(NC(=O)c2cc(-c3ccc(F)cc3F)ccc2O)nc1-c1ccccc1` [compound 227], the “Inhibitory rate … (%)” value by setting is: (Drug concentration at 1 μg/mL) 31.8%; (Drug concentration at 10 μg/mL) 90.3%.

With `CCOC(=O)c1sc(NC(=O)c2cc(-c3ccc(C(F)(F)F)cc3)ccc2O)nc1-c1ccccc1` [compound 228, 2-{[4-Hydroxy-4′-(trifluoromethyl)biphenyl]-3-carbonyl}amino-4-phenylthiazole-5-carboxylic acid ethyl ester], the “Inhibitory rate … (%)” value (Drug concentration at 10 μg/mL) amounted to 90.0%.

For the molecule `CCOC(=O)c1sc(NC(=O)c2cc(-n3cccc3)ccc2O)nc1-c1ccccc1` [compound 229], the “Inhibitory rate … (%)” value reads like this: (Drug concentration at 1 μg/mL) 74.0%; (Drug concentration at 10 μg/mL) 90.1%.

With `CCOC(=O)c1sc(NC(=O)c2cc(-c3cccs3)ccc2O)nc1-c1ccccc1` [compound 230, 2-[2-Hydroxy-5-(2-thienyl)benzoyl]amino-4-phenylthiazole-5-carboxylic acid ethyl ester], the inhibition at 1 µg/mL (Drug concentration at 1 μg/mL) was found to be 40.8%. In addition, where the note is “Drug concentration at 10 μg/mL”, the inhibition at 10 µg/mL amounted to 84.8%.

`O=C(Nc1nc(-c2cc(C(F)(F)F)cc(C(F)(F)F)c2)cs1)c1cc(Cl)ccc1O` [compound 231, 5-Chloro-2-hydroxy-N-{4-[3,5-bis(trifluoromethyl)phenyl]thiazol-2-yl}benzamide]: the inhibition at 1 µg/mL (Drug concentration at 1 μg/mL) is 95.9%. The inhibition at 10 µg/mL (Drug concentration at 10 μg/mL) was 94.5%.

On to `CCOC(=O)c1c(NC(=O)c2cc(Cl)ccc2O)sc2c1CCCC2` [compound 232], for which the “Inhibitory rate … (%)” value (Drug concentration at 1 μg/mL) turned out to be 88.2% and the “Inhibitory rate … (%)” value (Drug concentration at 10 μg/mL) is 85.4%.

Consider `O=C(Nc1cc(-c2ccccc2)[nH]n1)c1cc(Br)ccc1O` [compound 233], for which the “Inhibitory rate … (%)” value runs as follows: (Drug concentration at 1 μg/mL) 26.6%; (Drug concentration at 10 μg/mL) 84.7%.

With `CCc1nc(NC(=O)c2cc(Br)ccc2O)oc1CC` [compound 234, 5-Bromo-N-(4,5-diethyloxazol-2-yl)-2-hydroxybenzamide], for the setting “Drug concentration at 1 μg/mL”, the inhibition at 1 µg/mL was 29.1%. Besides, the inhibition at 10 µg/mL (Drug concentration at 10 μg/mL) is 63.1%.

On to `O=C(Nc1nc(-c2ccccc2)c(-c2ccccc2)o1)c1cc(Br)ccc1O` [compound 235], for which the “Inhibitory rate … (%)” value (Drug concentration at 10 μg/mL) is 81.8%.

With `O=C(Nc1nc(-c2ccco2)c(-c2ccco2)o1)c1cc(Br)ccc1O` [compound 236, 5-Bromo-N-[4,5-bis(furan-2-yl)oxazol-2-yl]-2-hydroxybenzamide], the inhibition at 1 µg/mL (Drug concentration at 1 μg/mL) turned out to be 21.4%. For the same molecule, the inhibition at 10 µg/mL (Drug concentration at 10 μg/mL) came to 56%.

For the molecule `O=C(Nc1nnc(C(F)(F)F)s1)c1ccccc1O` [compound 237, 2-Hydroxy-N-(5-trifluoromethyl-1,3,4-thiadiazol-2-yl)benzamide], the inhibition at 10 µg/mL (Drug concentration at 10 μg/mL) was determined as 81.9%.

`O=C(Nc1nnc(C(F)(F)F)s1)c1cc(Br)ccc1O` [compound 238]: the “Inhibitory rate … (%)” value is on record as 26.1% (Drug concentration at 1 μg/mL) and 90.3% (Drug concentration at 10 μg/mL).

Take `O=C(Nc1ccc(Cl)nc1)c1cc(Cl)ccc1O` [compound 240]: the “Inhibitory rate … (%)” value was 14.3% (Drug concentration at 1 μg/mL) and 92.3% (Drug concentration at 10 μg/mL).

Regarding `COc1cc(Cl)nc(NC(=O)c2cc(Cl)ccc2O)n1` [compound 241], the “Inhibitory rate … (%)” value runs as follows: (Drug concentration at 1 μg/mL) 25.5%; (Drug concentration at 10 μg/mL) 78.9%.

In the case of `O=C(Nc1cnc2ccccc2c1)c1cc(Cl)ccc1O` [compound 242], the “Inhibitory rate … (%)” value (Drug concentration at 10 μg/mL) was 85.7%.

For the molecule `O=C(Nc1cccc(Br)n1)c1cc(Cl)ccc1O` [compound 243], the “Inhibitory rate … (%)” value is on record as 84.2% (Drug concentration at 1 μg/mL) and 95.1% (Drug concentration at 10 μg/mL).

As for `O=C(Nc1cc(C(F)(F)F)cc(C(F)(F)F)c1)c1cc(S(=O)(=O)Nc2cc(C(F)(F)F)cc(C(F)(F)F)c2)ccc1O` [compound 247], under “Drug concentration at 10 μg/mL”, the “Inhibitory rate … (%)” value is over 99.9%.

Consider `O=C(Nc1cc(C(F)(F)F)cc(C(F)(F)F)c1)c1cccc(-c2ccccc2)c1O` [compound 249, N-[3,5-bis(trifluoromethyl)phenyl]-2-hydroxy-3-phenylbenzamide], for which the inhibition at 1 µg/mL (Drug concentration at 1 μg/mL) came to 86.6%. The inhibition at 10 µg/mL (Drug concentration at 10 μg/mL) was found to be 90.7%.

For the molecule `O=C(Nc1cc(C(F)(F)F)cc(C(F)(F)F)c1)c1ccc(F)cc1O` [compound 250], the “Inhibitory rate … (%)” value reads like this: (Drug concentration at 1 μg/mL) 94.2%; (Drug concentration at 10 μg/mL) 95.4%.

For `N#Cc1ccc(Oc2ccc(C(F)(F)F)cc2NC(=O)c2cc(Cl)ccc2O)cc1` [compound 252], the “Inhibitory rate … (%)” value came out at 93.9% (Drug concentration at 1 μg/mL) and 96.3% (Drug concentration at 10 μg/mL).

As for `COc1ccc(Oc2ccc(C(F)(F)F)cc2NC(=O)c2cc(Cl)ccc2O)cc1` [compound 253], the “Inhibitory rate … (%)” value (Drug concentration at 1 μg/mL) was 96.3% and the “Inhibitory rate … (%)” value (Drug concentration at 10 μg/mL) stood at 99.5%.

Consider `O=C(Nc1nc(-c2ccc(Cl)cc2Cl)cs1)c1cc(Cl)ccc1O` [compound 255, 5-Chloro-2-hydroxy-N-[4-(2,4-dichlorophenyl)thiazol-2-yl]benzamide], for which the inhibition at 1 µg/mL (Drug concentration at 1 μg/mL) was over 99.9%.

Consider `CC(C)c1cccc(C(=O)Nc2cc(C(F)(F)F)cc(C(F)(F)F)c2)c1O` [compound 256, N-[3,5-bis(trifluoromethyl)phenyl]-2-hydroxy-3-isopropylbenzamide], for which the inhibition at 1 µg/mL (Drug concentration at 1 μg/mL) turned out to be 92.1%.

Consider `CC(C)c1cc(Br)cc(C(=O)Nc2cc(C(F)(F)F)cc(C(F)(F)F)c2)c1O` [compound 257], for which, for the setting “Drug concentration at 1 μg/mL”, the “Inhibitory rate … (%)” value is given as over 99.9%.

As to `Cc1cc(Br)cc(C(=O)Nc2cc(C(F)(F)F)cc(C(F)(F)F)c2)c1O` [compound 258], the “Inhibitory rate … (%)” value (Drug concentration at 1 μg/mL) was over 99.9%.

For `O=C(Nc1cc(C(F)(F)F)cc(C(F)(F)F)c1)c1cc(Br)cc(-c2ccccc2)c1O` [compound 259], the “Inhibitory rate … (%)” value (Drug concentration at 1 μg/mL) is reported as over 99.9%.

For `O=C(Nc1nc(-c2ccc(Cl)c(Cl)c2)cs1)c1cc(Cl)ccc1O` [compound 260, 5-Chloro-2-hydroxy-N-[4-(3,4-dichlorophenyl)thiazol-2-yl]benzamide], the inhibition at 1 µg/mL (Drug concentration at 1 μg/mL) is over 99.9%.

As for `O=C(Nc1nc(-c2ccc(C(F)(F)F)cc2)cs1)c1cc(Cl)ccc1O` [compound 261, 5-Chloro-2-hydroxy-N-{4-[4-(trifluoromethyl)phenyl]thiazol-2-yl}benzamide], the inhibition at 1 µg/mL (Drug concentration at 1 μg/mL) was over 99.9%.

For the molecule `O=C(Nc1cc(C(F)(F)F)cc(C(F)(F)F)c1)c1ccc(-c2ccccc2)cc1O` [compound 262, N-[3,5-Bis(trifluoromethyl)phenyl]-2-hydroxy-4-phenylbenzamide], under “Drug concentration at 1 μg/mL”, the inhibition at 1 µg/mL was over 99.9%.

For the molecule `O=C(Nc1nc(-c2cc(F)ccc2F)cs1)c1cc(Cl)ccc1O` [compound 263, 5-Chloro-2-hydroxy-N-[4-(2,5-difluorophenyl)thiazol-2-yl]benzamide], the inhibition at 1 µg/mL (Drug concentration at 1 μg/mL) is over 99.9%.

Turning to `COc1ccc(-c2csc(NC(=O)c3cc(Cl)ccc3O)n2)cc1` [compound 264, 5-Chloro-2-hydroxy-N-[4-(4-methoxyphenyl)thiazol-2-yl]benzamide], the inhibition at 1 µg/mL (Drug concentration at 1 μg/mL) was over 99.9%.

The values are drawn from patent publication US20080234233A1, “MEDICAMENT FOR TREATMENT OF NEURODEGENERATIVE DISEASES” (INSTITUTE OF MEDICINAL MOLECULAR DESIGN INC., priority 2002, published 2008).
